# Reference: patent publication US8895282B2, “Use of a substance for manufacturing of a medicament for treatment of common cold” (Tanomed AB, priority 2008, dated 2014)
# Several values for one entry are separate records, joined by “and”; a condition that tells them apart may be missing. Equal entries are not always repeated. Where two headings read alike, the source gives them in different places.
# Tests used:
# Rhinovirus 7 [1] = test system: Rhinovirus 7
# Method: Virus: Rhinovirus 7, purchased from ATCC (VR-1117), was used as a representative for the rhinovirus group. In the assays the dilutions 10^−2 and 10^−3 were used. […] 0.3 ml of each dilution was added into the vials.
# (§1) Cell culture: Human lung cell fibroblasts (WI 38, ATCC-CCL-75) was used for cytopathic effect detection. 10-fold serial dilutions had been made from the concentrated viral suspension. […] Then the media was changed to RPMI with 2% of fetal calf serum, which was preserved during the assay. The cells were incubated in CO2enriched air at 37° C. During the experiments a cell culture of 17th-18^thpassage was used.
# Catalase: From Sigma-Aldrich™. A solution of 100 000 U/ml was prepared from the original solution of 10^6 U/ml.
# H2O2: a 20% solution was diluted in Phosphate buffered saline (PBS) to a 0.5% and a 0.05% solution. 0.1 ml was added to the vials, which means 0.05% or 0.005% in the vials.
# A solution of 200 U/ml and 600 U/ml was prepared from the original solution of 6000 U/ml.
# In order to evaluate whether the effect of the hydrogen peroxide was a direct effect on the virus itself or a cytoprotective effect, we preincubated the virus with the hydrogen peroxide, before it was transferred to the wells with the cells. The WI 38 cells are also sensitive to hydrogen peroxide, and therefore it was necessary to add catalase before inoculation into the wells. […] This design would also reveal if the inhibitory effect was only a virostatic one, or if it could damage the virions irreversibly.
# (§2) In table 1 the content of each of the 10 vials (Eppendorf) is listed. The vials were incubated in a heater keeping a stable temperature of 37° C. 1000 U of catalase was added after 15, 30 and 60 min of incubation. 2×50 μl from each vial was transferred to duplicate cell wells (a 96-well plate).
# WI 38 cells [2] = test system: WI 38 cells
# Method: as §1, §2
# Rhinovirus 8 = conditions: 50 μl b8: RV8 preincubated 30 min with 0.01% hydrogen peroxide, then catalase
# Method: (§3) Virus concentration=dil 2. Incubation during 30 min in heater keeping 37° C. After 30 min the effect of the hydrogen peroxide is aborted with the addition of 0.1 ml catalase solution into the vial (=1 kU/ml). • 0.7 ml 5% glucose solution+0.1 ml dil 1 of RV7 (=a7) or RV8 (=a8)+0.1 ml of the hydrogen peroxide solution (=final concentration in the vial=[…]). Incubation and abortion of the hydrogen peroxide effect similar as in a).
# (§4) Altogether 4 vials (Eppendorff): a7, a8, b7 and b8.
# (§5) After the addition of catalase, samples are transferred to a 96-well plate with flat bottom according to table 3.
# Rhinovirus 7 [3] = conditions: b7: RV7 preincubated 30 min with 0.01% hydrogen peroxide, then catalase
# Method: as §3, §4, §5
# WI 38 cells [4] = test system: WI 38 cells; remark: listed apart in the source
# Method: as §3, §5
# [5] = 0.005% H2O2, RV 7 dil 10^−2, preincubation 15 min
# [6] = 0.005% H2O2, RV 7 dil 10^−2, preincubation 30 min
# [7] = 0.005% H2O2, RV 7 dil 10^−2, preincubation 60 min
# [8] = 0.005% H2O2, RV 7 dil 10^−3, preincubation 15 min
# [9] = 0.005% H2O2, RV 7 dil 10^−3, preincubation 30 min
# [10] = 0.005% H2O2, RV 7 dil 10^−3, preincubation 60 min
# [11] = 0.05% H2O2, RV 7 dil 10^−2, preincubation 15 min
# [12] = 0.05% H2O2, RV 7 dil 10^−2, preincubation 30 min
# [13] = 0.05% H2O2, RV 7 dil 10^−2, preincubation 60 min
# [14] = 0.05% H2O2, RV 7 dil 10^−3, preincubation 15 min
# [15] = 0.05% H2O2, RV 7 dil 10^−3, preincubation 30 min
# [16] = 0.05% H2O2, RV 7 dil 10^−3, preincubation 60 min
structure (smiles),measurement,setting,value
"OO [H2O2, hydrogen peroxide]",Inactivation of RV 7,"Rhinovirus 7 [1]; 0.005% (2 mM) hydrogen peroxide, higher concentration of RV 7",not able to inactivate
same,Day 3 (cytopathic effect of RV 7 on WI 38 cells),Rhinovirus 7 [1]; [5],+
same,Day 5 (cytopathic effect of RV 7 on WI 38 cells),Rhinovirus 7 [1]; [5],++
same,Day 7 (cytopathic effect of RV 7 on WI 38 cells),Rhinovirus 7 [1]; [5],++
same,Day 3 (cytopathic effect of RV 7 on WI 38 cells),Rhinovirus 7 [1]; [6],+
same,Day 5 (cytopathic effect of RV 7 on WI 38 cells),Rhinovirus 7 [1]; [6],+
same,Day 7 (cytopathic effect of RV 7 on WI 38 cells),Rhinovirus 7 [1]; [6],++
same,Day 3 (cytopathic effect of RV 7 on WI 38 cells),Rhinovirus 7 [1]; [7],+
same,Day 5 (cytopathic effect of RV 7 on WI 38 cells),Rhinovirus 7 [1]; [7],+
same,Day 7 (cytopathic effect of RV 7 on WI 38 cells),Rhinovirus 7 [1]; [7],+
same,Day 3 (cytopathic effect of RV 7 on WI 38 cells),Rhinovirus 7 [1]; [8],−
same,Day 5 (cytopathic effect of RV 7 on WI 38 cells),Rhinovirus 7 [1]; [8],+
same,Day 7 (cytopathic effect of RV 7 on WI 38 cells),Rhinovirus 7 [1]; [8],+
same,Day 3 (cytopathic effect of RV 7 on WI 38 cells),Rhinovirus 7 [1]; [9],−
same,Day 5 (cytopathic effect of RV 7 on WI 38 cells),Rhinovirus 7 [1]; [9],−
same,Day 7 (cytopathic effect of RV 7 on WI 38 cells),Rhinovirus 7 [1]; [9],−
same,Day 3 (cytopathic effect of RV 7 on WI 38 cells),Rhinovirus 7 [1]; [10],−
same,Day 5 (cytopathic effect of RV 7 on WI 38 cells),Rhinovirus 7 [1]; [10],−
same,Day 7 (cytopathic effect of RV 7 on WI 38 cells),Rhinovirus 7 [1]; [10],−
same,Inactivation of RV 7,"Rhinovirus 7 [1]; 0.005% hydrogen peroxide, 60 min of incubation, RV 7 10^−3 dilution",able to inactivate
same,Inactivation of RV 7,"Rhinovirus 7 [1]; 0.05% (20 mM) H2O2, all RV 7 concentrations, already after 15 min of incubation",able to inactivate
same,Day 3 (cytopathic effect of RV 7 on WI 38 cells),Rhinovirus 7 [1]; [11],−
same,Day 5 (cytopathic effect of RV 7 on WI 38 cells),Rhinovirus 7 [1]; [11],−
same,Day 7 (cytopathic effect of RV 7 on WI 38 cells),Rhinovirus 7 [1]; [11],−
same,Day 3 (cytopathic effect of RV 7 on WI 38 cells),Rhinovirus 7 [1]; [12],−
same,Day 5 (cytopathic effect of RV 7 on WI 38 cells),Rhinovirus 7 [1]; [12],−
same,Day 7 (cytopathic effect of RV 7 on WI 38 cells),Rhinovirus 7 [1]; [12],−
same,Day 3 (cytopathic effect of RV 7 on WI 38 cells),Rhinovirus 7 [1]; [13],−
same,Day 5 (cytopathic effect of RV 7 on WI 38 cells),Rhinovirus 7 [1]; [13],−
same,Day 7 (cytopathic effect of RV 7 on WI 38 cells),Rhinovirus 7 [1]; [13],−
same,Day 3 (cytopathic effect of RV 7 on WI 38 cells),Rhinovirus 7 [1]; [14],−
same,Day 5 (cytopathic effect of RV 7 on WI 38 cells),Rhinovirus 7 [1]; [14],−
same,Day 7 (cytopathic effect of RV 7 on WI 38 cells),Rhinovirus 7 [1]; [14],−
same,Day 3 (cytopathic effect of RV 7 on WI 38 cells),Rhinovirus 7 [1]; [15],−
same,Day 5 (cytopathic effect of RV 7 on WI 38 cells),Rhinovirus 7 [1]; [15],−
same,Day 7 (cytopathic effect of RV 7 on WI 38 cells),Rhinovirus 7 [1]; [15],−
same,Day 3 (cytopathic effect of RV 7 on WI 38 cells),Rhinovirus 7 [1]; [16],−
same,Day 5 (cytopathic effect of RV 7 on WI 38 cells),Rhinovirus 7 [1]; [16],−
same,Day 7 (cytopathic effect of RV 7 on WI 38 cells),Rhinovirus 7 [1]; [16],−
same,Reversibility of the inactivation of RV 7,"Rhinovirus 7 [1]; Glucose Oxidase or 0.05% hydrogen peroxide solution, 7 days of incubation, no sign of recovery",irreversible
same,"Day 3 (toxic effect on WI 38 cells, control)",WI 38 cells [2],TOX
same,"Day 5 (toxic effect on WI 38 cells, control)",WI 38 cells [2],TOX
same,"Day 7 (toxic effect on WI 38 cells, control)",WI 38 cells [2],TOX
same,Toxic effect on WI 38 cells,WI 38 cells [2],severe toxic effect
same,Infection of WI 38 cells after 2 days of inoculation,Rhinovirus 8,1+
same,Infection of WI 38 cells after 10 days of inoculation,Rhinovirus 8,3+
same,Infection of WI 38 cells after 2 days of inoculation,Rhinovirus 7 [3],1+
same,Infection of WI 38 cells after 10 days of inoculation,Rhinovirus 7 [3],1+ and 2+
same,Effect on WI 38 cells after 2 days,WI 38 cells [4],Tox
same,Effect on WI 38 cells after 10 days,WI 38 cells [4],tox
